Measured values from BigSolDB 2.1.

O=C(O)c1cccc(C(=O)O)c1
Details | solubility (mole fraction)
in 1,2-diethoxyethane, 293.3 K | 0.00265
in 1,2-diethoxyethane, 303.15 K | 0.00293
in 1,2-diethoxyethane, 313.15 K | 0.0033
in 1,2-diethoxyethane, 322.75 K | 0.00376
in 1,2-diethoxyethane, 332.65 K | 0.00433
in 1,2-diethoxyethane, 342.45 K | 0.00502
in THF, 293.35 K | 0.0141
in THF, 303.15 K | 0.0154
in THF, 313.45 K | 0.0169
in THF, 322.85 K | 0.0185
in THF, 328.75 K | 0.0196
in acetophenone, 303.15 K | 0.000725
in acetophenone, 313.15 K | 0.000858
in acetophenone, 323.05 K | 0.00105
in acetophenone, 332.95 K | 0.00135
in acetophenone, 342.95 K | 0.00175
in cyclohexanone, 293.35 K | 0.00239
in cyclohexanone, 303.15 K | 0.00302
in cyclohexanone, 313.15 K | 0.00385
in cyclohexanone, 322.75 K | 0.00469
in cyclohexanone, 332.75 K | 0.00571
in cyclohexanone, 342.85 K | 0.00697

O=C(O)c1ccc(C(=O)O)cc1
Details | solubility (mole fraction)
in 1,2-diethoxyethane, 293.15 K | 0.000214
in 1,2-diethoxyethane, 303.3 K | 0.000251
in 1,2-diethoxyethane, 313.25 K | 0.000294
in 1,2-diethoxyethane, 323.35 K | 0.000344
in 1,2-diethoxyethane, 333.65 K | 0.000403
in 1,2-diethoxyethane, 343.55 K | 0.000477
in THF, 293.15 K | 0.000882
in THF, 303.15 K | 0.000995
in THF, 313.45 K | 0.00115
in THF, 323.35 K | 0.0014
in THF, 329.35 K | 0.00164
in acetophenone, 303.15 K | 1.07e-05
in acetophenone, 313.15 K | 1.87e-05
in acetophenone, 323.15 K | 3.47e-05
in acetophenone, 332.85 K | 6.17e-05
in acetophenone, 343.3 K | 0.000116
in cyclohexanone, 293.15 K | 0.000167
in cyclohexanone, 303.15 K | 0.000183
in cyclohexanone, 313.15 K | 0.000231
in cyclohexanone, 323.3 K | 0.000302
in cyclohexanone, 333.4 K | 0.000385
in cyclohexanone, 343.85 K | 0.00053

O=C(O)c1ccccc1C(=O)O
Details | solubility (mole fraction)
in 1,2-diethoxyethane, 293.15 K | 0.0154
in 1,2-diethoxyethane, 303.25 K | 0.0177
in 1,2-diethoxyethane, 313.2 K | 0.02
in 1,2-diethoxyethane, 323.05 K | 0.0228
in 1,2-diethoxyethane, 333.15 K | 0.0261
in 1,2-diethoxyethane, 343.05 K | 0.0302
in THF, 293.25 K | 0.0697
in THF, 303.15 K | 0.0754
in THF, 313.45 K | 0.0826
in THF, 323.15 K | 0.0899
in THF, 329.05 K | 0.0949
in acetophenone, 303.35 K | 0.0056
in acetophenone, 313.35 K | 0.00724
in acetophenone, 323.35 K | 0.00933
in acetophenone, 332.95 K | 0.0119
in acetophenone, 343.55 K | 0.0152
in cyclohexanone, 293.15 K | 0.0176
in cyclohexanone, 303.15 K | 0.0212
in cyclohexanone, 313.15 K | 0.0257
in cyclohexanone, 323.15 K | 0.031
in cyclohexanone, 333.15 K | 0.037
in cyclohexanone, 343.4 K | 0.0459
